One substance from patent US20050032743A1, “Compositions and method for steroid homeostasis” (priority 2002, published 2005) can be followed below.

Where “and” joins values, the source holds several entries; their conditions need not be identical. Equal entries are not always repeated.

The test system of test [1] is Vitamin D deficient Sprague Dawley rats. As to the kind of experiment: Effect of calcium fructoborate on bone density in vitamin D deficient rats. Type of test: in vivo. Here is the method: Vitamin D deficient Sprague Dawley rats (21 days old) were divided into three groups and fed a regulated vitamin D deficient diet (0.47% Ca, 0.3% P) over a period of 9 weeks. The diet of the first group was supplemented with calcium fructoborate at 30 mcg/gm, the diet of the second group was supplemented with calcium fructoborate at 185 mcg/gm, and the diet of the third group was left unchanged as a control group. At the end of the test period animals of all three groups were evaluated for increase in vitamin D levels and increase in bone density.

Test [2] deals with serum/plasma concentrations of testosterone, 25-hydroxy vitamin D, and dehydroepiandrosterone. As to the kind of experiment: Effect of calcium fructoborate on selected steroids in healthy volunteers. Type of test: in vivo, human. The conditions noted are these: for DHEA (dehydroepiandrosterone serum/plasma concentration) / TES (Testosterone serum/plasma concentration) / VITD (Vitamin D serum/plasma concentration): individual volunteer. Here is the method: A group of healthy volunteers was given after obtaining their informed consent a daily oral dose of 6 mg Calcium fructoborate (as prepared in Example 1 above) for a period of 60 days, and the serum/plasma concentrations of testosterone, 25-hydroxy vitamin D, and dehydroepiandrosterone was determined in an independent clinical laboratory. Table 1 below summarizes the results in which TES refers to ng/ml Testosterone, DHEA refers to mcg/ml dehydroepiandrosterone, and VITD refers to ng/ml Vitamin D. The first number is the serum/plasma concentration at the beginning of the trial while the second number is the serum/plasma concentration after 60 days.

The mark [3] stands for this setting: severely vitamin D deficient rats, 9 weeks.
[4] abbreviates: after 60 days of daily oral 6 mg (second number).
Setting [5] is: at the beginning of the trial (first number).
The mark [6] stands for this setting: daily oral 6 mg, 60 days, four volunteers.

With calcium fructoborate, in test [1] (first test group, diet supplemented at 30 mcg/gm, 9 weeks), the “bone ash increase over the control” value is reported as 1.4%. Besides, in test [1] (second test group, diet supplemented at 185 mcg/gm, 9 weeks), the “bone ash increase over the control” value stood at 5.8%. In test [1] (setting [3]), the “conservation or biosynthesis of vitamin D” value is “did not conserve or promote biosynthesis of vitamin D”, the “growth of the animals” value is “failed to promote growth of the animals” and the “raising the serum calcium concentration above the control” value is “failed”. For the same substance, in test [1] (under vitamin D deficiency conditions), the bone density entry was “increased the bone density”. Also, in test [2] (setting [4]), the “DHEA (dehydroepiandrosterone serum/plasma concentration)” value is 2.1 mcg/ml (2×) and 4.1 mcg/ml and 2.95 mcg/ml; the “TES (Testosterone serum/plasma concentration)” value is 14.1 ng/mL and 8.2 ng/mL and 7.8 ng/mL and 8.0 ng/mL; the “VITD (Vitamin D serum/plasma concentration)” value is 9.9 ng/mL and 16.1 ng/mL and 15.8 ng/mL and 12.0 ng/mL. Also, in test [2] (setting [5]), the “DHEA (dehydroepiandrosterone serum/plasma concentration)” value was 1.9 mcg/ml (2×) and 3.5 mcg/ml and 2.75 mcg/ml; the “TES (Testosterone serum/plasma concentration)” value was 11.9 ng/ml and 6.3 ng/ml and 6.2 ng/ml (2×); the “VITD (Vitamin D serum/plasma concentration)” value is 7.9 ng/mL and 12.1 ng/mL and 11.8 ng/mL and 9.3 ng/mL. Moreover, the “serum/plasma concentration of various steroids” value in test [2] (daily oral 6 mg, 60 days) is “significantly increased”. For the same substance, in test [2] (setting [6]), the “Average increase DHEA” value is given as 11%, the “Average increase TES” value is recorded as 25% and the “Average increase VITD” value worked out at 28%.
